The target in data set [1] is T1, Serine/threonine-protein kinase PAK 1 (Homo sapiens, UniProt Q13153). Nature of the data set: Inhibition of PAK1 (unknown origin).
Data set [2] has as its target T2, Serine/threonine-protein kinase PAK 4 (Homo sapiens, UniProt O96013). Briefly: Inhibition of PAK4 (unknown origin).
Target sequence in this assay (O96013 whole entry): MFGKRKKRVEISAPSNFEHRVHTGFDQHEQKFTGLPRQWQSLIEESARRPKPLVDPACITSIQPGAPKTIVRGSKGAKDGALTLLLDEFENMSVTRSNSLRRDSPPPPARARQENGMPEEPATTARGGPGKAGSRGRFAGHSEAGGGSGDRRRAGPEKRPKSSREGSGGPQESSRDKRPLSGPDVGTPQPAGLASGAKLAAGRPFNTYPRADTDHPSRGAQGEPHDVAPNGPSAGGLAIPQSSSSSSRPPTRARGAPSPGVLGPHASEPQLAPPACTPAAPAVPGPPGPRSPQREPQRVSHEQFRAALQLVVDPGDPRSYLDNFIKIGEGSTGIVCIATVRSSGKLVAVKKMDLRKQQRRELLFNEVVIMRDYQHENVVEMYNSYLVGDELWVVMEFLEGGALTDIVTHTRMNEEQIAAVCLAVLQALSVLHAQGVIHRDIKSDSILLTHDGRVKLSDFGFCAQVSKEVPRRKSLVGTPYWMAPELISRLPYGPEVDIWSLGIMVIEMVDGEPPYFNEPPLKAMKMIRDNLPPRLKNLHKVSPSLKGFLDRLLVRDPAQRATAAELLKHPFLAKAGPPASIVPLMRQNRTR
In a further data set the target is T3, Aurora kinase A (Homo sapiens, UniProt O14965).
T3 sequence (O14965 whole entry): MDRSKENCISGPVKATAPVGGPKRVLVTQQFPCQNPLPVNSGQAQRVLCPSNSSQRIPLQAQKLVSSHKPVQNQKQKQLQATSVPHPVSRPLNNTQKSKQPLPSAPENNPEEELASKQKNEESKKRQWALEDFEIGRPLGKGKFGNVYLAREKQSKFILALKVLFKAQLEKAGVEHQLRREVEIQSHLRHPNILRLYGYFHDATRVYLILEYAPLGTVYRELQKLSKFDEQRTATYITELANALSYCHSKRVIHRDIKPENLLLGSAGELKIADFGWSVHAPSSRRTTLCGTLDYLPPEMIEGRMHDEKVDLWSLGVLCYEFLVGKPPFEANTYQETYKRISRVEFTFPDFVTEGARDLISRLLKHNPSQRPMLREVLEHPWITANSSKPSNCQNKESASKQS
Briefly: Inhibition of Aurora A (unknown origin).

The nature of data set [3]: Lipophilicity, log D of the compound at pH 7.4. Type of data set: physicochemical. Conditions: buffer.
The nature of data set [4]: Apparent permeability across apical to basolateral side of MDCK cells. Type of data set: ADME, cell-based, Canis lupus familiaris. To be noted: dog.
In data set [5] the target is T1, Serine/threonine-protein kinase PAK 1. Briefly: Inhibition of PAK1 in human EBC1 cells assessed as inhibition of MEK phosphorylation at S298. Type of data set: cell-based.
Data set [6] in a line: Clearance in mouse at 0.3 mg/kg, iv. It counts as ADME, organism-based. To be noted: in vivo.
The nature of data set [7]: (§1) AUC in mouse at 25 mg/kg, po. It counts as ADME, organism-based. Conditions: in vivo.
Data set [8] is described as follows: Oral bioavailability in mouse at 25 mg/kg. Type of data set: ADME, organism-based. Conditions: in vivo.
Data set [9] addresses Protein kinase C theta type (Homo sapiens) (UniProt Q04759). Briefly: Inhibition of recombinant human PKCtheta at 1 uM relative to control.
The next data set relates to Mus musculus. The data set is described as §1. It counts as ADME, organism-based. To be noted: in vivo, BLD = below limit of detection.
Data set [10] addresses CDK2/Cyclin A2 (Homo sapiens) (UniProt P24941+P20248). Nature of the data set: Inhibition of recombinant human CDK2/cyclin A at 1 uM relative to control. It counts as protein-complex assay.
The target in data set [11] is Ribosomal protein S6 kinase alpha-2 (Homo sapiens) (UniProt Q15349). Conditions: 1 uM.
Chain of Ribosomal protein S6 kinase alpha-2 (Homo sapiens) (Q15349 whole entry): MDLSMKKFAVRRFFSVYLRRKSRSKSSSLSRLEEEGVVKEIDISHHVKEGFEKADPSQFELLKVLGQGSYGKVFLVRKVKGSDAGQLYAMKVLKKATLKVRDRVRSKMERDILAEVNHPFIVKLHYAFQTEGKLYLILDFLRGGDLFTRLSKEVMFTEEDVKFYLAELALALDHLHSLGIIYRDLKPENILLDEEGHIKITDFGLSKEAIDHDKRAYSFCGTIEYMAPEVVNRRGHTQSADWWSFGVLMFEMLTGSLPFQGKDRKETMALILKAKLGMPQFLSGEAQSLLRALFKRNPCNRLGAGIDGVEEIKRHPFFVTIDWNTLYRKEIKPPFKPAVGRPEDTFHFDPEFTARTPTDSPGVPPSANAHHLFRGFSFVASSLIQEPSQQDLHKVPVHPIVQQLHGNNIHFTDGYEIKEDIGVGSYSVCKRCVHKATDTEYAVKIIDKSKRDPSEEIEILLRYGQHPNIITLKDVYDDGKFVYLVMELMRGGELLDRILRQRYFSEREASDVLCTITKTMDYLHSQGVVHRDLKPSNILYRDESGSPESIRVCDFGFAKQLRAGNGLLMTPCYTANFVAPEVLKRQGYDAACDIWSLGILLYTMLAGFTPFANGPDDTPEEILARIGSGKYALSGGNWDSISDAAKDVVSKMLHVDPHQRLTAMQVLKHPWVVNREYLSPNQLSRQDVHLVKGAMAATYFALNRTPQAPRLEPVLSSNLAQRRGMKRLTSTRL
Description: Inhibition of recombinant human RSK3 at 1 uM relative to control
The target of data set [12] is Aurora kinase A (Homo sapiens) (UniProt O14965). To be noted: 1 uM.
Description: Inhibition of recombinant human Aurora A at 1 uM relative to control
The target in data set [13] is Cyclin-dependent kinase 1/cyclin B1 (Homo sapiens) (UniProt P06493+P14635). To be noted: 1 uM.
Chain of Cyclin-dependent kinase 1/cyclin B1 (Homo sapiens) (P06493 whole entry, looked up): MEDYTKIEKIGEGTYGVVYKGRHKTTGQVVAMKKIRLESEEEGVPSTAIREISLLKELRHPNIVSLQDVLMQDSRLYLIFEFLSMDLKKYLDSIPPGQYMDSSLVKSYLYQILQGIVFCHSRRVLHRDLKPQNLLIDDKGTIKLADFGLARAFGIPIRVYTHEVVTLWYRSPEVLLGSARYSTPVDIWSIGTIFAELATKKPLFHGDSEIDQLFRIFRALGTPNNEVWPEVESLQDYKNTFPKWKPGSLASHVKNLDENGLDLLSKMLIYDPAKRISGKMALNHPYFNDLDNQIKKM
Chain of Cyclin-dependent kinase 1/cyclin B1 (Homo sapiens) (P14635 whole entry, looked up): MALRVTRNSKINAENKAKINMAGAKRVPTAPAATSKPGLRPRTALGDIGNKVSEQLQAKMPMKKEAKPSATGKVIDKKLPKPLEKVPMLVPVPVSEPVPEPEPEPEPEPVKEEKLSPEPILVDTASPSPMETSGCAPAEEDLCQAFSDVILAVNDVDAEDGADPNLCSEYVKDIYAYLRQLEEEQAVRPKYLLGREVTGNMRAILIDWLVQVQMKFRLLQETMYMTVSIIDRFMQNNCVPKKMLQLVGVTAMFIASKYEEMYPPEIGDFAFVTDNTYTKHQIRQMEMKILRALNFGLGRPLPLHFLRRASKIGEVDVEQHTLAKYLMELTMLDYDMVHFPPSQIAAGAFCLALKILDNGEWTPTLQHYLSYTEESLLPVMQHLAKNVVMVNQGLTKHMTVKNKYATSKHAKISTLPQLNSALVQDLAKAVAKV
Description: Inhibition of recombinant human CDK1/cyclin B at 1 uM relative to control
In data set [14] the target is Cyclin-dependent kinase 5/CDK5 activator 1 (Homo sapiens) (UniProt Q00535+Q15078). To be noted: 1 uM.
Description: Inhibition of recombinant human CDK5/p25 at 1 uM relative to control
In data set [15] the target is Cyclin-dependent kinase 7/ cyclin H (Homo sapiens) (UniProt P51946+P50613). Conditions: 1 uM.
Description: Inhibition of recombinant human CDK7/cyclin H at 1 uM relative to control
Data set [16] has as its target Myotonin-protein kinase (Homo sapiens) (UniProt Q09013). Conditions: 1 uM.
Description: Inhibition of recombinant human DMPK at 1 uM relative to control
The target of data set [17] is Epidermal growth factor receptor (Homo sapiens) (UniProt P00533). To be noted: 1 uM.
Description: Inhibition of recombinant human EGFR at 1 uM relative to control
For data set [18], the target named is Receptor-type tyrosine-protein kinase FLT3 (Homo sapiens) (UniProt P36888). Conditions: 1 uM.
Description: Inhibition of recombinant human FLT3 at 1 uM relative to control
For data set [19], the target named is Glycogen synthase kinase-3 alpha (Homo sapiens) (UniProt P49840). Conditions: 1 uM.
Description: Inhibition of GSK-3alpha (unknown origin) at 1 uM relative to control
Data set [20] deals with Tyrosine-protein kinase JAK2 (Homo sapiens) (UniProt O60674). Conditions: 1 uM.
Description: Inhibition of recombinant human JAK2 at 1 uM relative to control
Data set [21] addresses Vascular endothelial growth factor receptor 2 (Homo sapiens) (UniProt P35968). Conditions: 1 uM.
Description: Inhibition of recombinant human KDR at 1 uM relative to control
The target of data set [22] is Mitogen-activated protein kinase kinase kinase kinase 5 (Homo sapiens) (UniProt Q9Y4K4). To be noted: 1 uM.
Chain of Mitogen-activated protein kinase kinase kinase kinase 5 (Homo sapiens) (Q9Y4K4 whole entry, looked up): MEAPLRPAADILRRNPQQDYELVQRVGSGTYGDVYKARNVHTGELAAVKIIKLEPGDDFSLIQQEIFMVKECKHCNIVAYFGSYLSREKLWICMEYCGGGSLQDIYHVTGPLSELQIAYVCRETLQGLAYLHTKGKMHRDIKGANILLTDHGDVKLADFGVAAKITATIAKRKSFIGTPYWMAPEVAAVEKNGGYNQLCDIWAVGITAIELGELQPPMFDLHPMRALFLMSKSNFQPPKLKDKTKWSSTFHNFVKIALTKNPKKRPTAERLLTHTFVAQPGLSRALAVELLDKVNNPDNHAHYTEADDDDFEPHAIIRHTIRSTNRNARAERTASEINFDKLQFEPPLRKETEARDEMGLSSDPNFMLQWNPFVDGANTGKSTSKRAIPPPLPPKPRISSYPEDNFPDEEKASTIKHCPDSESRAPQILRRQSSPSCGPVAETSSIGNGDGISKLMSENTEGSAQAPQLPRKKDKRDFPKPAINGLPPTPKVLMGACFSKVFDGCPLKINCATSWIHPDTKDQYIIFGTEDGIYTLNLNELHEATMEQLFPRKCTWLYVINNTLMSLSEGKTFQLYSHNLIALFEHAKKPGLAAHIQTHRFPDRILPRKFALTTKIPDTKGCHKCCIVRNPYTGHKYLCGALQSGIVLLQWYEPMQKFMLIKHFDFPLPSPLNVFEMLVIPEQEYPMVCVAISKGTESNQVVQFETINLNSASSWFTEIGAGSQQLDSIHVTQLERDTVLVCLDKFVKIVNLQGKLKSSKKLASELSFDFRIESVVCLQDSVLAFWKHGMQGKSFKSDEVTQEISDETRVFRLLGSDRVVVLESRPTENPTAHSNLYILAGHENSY
Description: Inhibition of recombinant human KHS1 at 1 uM relative to control
In data set [23] the target is Mitogen-activated protein kinase kinase kinase 9 (Homo sapiens) (UniProt P80192). To be noted: 1 uM.
Description: Inhibition of recombinant human MLK1 at 1 uM relative to control
Data set [24] deals with Serine/threonine-protein kinase 4 (Homo sapiens) (UniProt Q13043). To be noted: 1 uM.
Description: Inhibition of recombinant human MST1 at 1 uM relative to control
Data set [25] deals with Serine/threonine-protein kinase 3 (Homo sapiens) (UniProt Q13188). To be noted: 1 uM.
Chain of Serine/threonine-protein kinase 3 (Homo sapiens) (Q13188 whole entry): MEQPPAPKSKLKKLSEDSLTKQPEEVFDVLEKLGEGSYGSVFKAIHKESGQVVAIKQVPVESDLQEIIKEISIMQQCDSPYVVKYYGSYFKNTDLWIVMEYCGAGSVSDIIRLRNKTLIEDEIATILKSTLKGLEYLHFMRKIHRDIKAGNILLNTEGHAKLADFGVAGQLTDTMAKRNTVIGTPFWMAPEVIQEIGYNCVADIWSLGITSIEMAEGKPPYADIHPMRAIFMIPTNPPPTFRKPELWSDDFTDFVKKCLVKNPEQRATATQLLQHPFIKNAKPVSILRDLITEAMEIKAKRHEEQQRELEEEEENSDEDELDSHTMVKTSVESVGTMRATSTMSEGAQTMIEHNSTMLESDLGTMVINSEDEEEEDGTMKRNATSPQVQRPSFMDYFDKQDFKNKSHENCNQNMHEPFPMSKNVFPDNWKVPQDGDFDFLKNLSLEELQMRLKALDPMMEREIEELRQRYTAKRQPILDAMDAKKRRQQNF
Description: Inhibition of recombinant human MST2 at 1 uM relative to control
For data set [26], the target named is T1, Serine/threonine-protein kinase PAK 1. Conditions: 1 uM.
Description: Inhibition of recombinant human PAK1 at 1 uM relative to control
For data set [27], the target named is T2, Serine/threonine-protein kinase PAK 4. To be noted: 1 uM.
Target sequence in this assay (O96013 whole entry, looked up): as the sequence (O96013 whole entry) above
Description: Inhibition of recombinant human PAK4 at 1 uM relative to control
Data set [28] has as its system Platelet-derived growth factor receptor alpha (Homo sapiens), P16234 [V561D]. Conditions: 1 uM.
Description: Inhibition of recombinant human PDGFRalpha V561D mutant at 1 uM relative to control
Data set [29] concerns the target Protein kinase C alpha type (Homo sapiens) (UniProt P17252). To be noted: 1 uM.
Description: Inhibition of recombinant human PKCalpha at 1 uM relative to control
Data set [30] has as its target Protein kinase C delta type (Homo sapiens) (UniProt Q05655). To be noted: 1 uM.
Description: Inhibition of recombinant human PKCdelta at 1 uM relative to control
Data set [31] concerns the target Proto-oncogene tyrosine-protein kinase Src (Homo sapiens) (UniProt P12931). To be noted: 1 uM.
Description: Inhibition of recombinant human Src at 1 uM relative to control
Data set [32] deals with High affinity nerve growth factor receptor (Homo sapiens) (UniProt P04629). To be noted: 1 uM.
Description: Inhibition of recombinant human TrkA at 1 uM relative to control
In data set [33] the target is BDNF/NT-3 growth factors receptor (Homo sapiens) (UniProt Q16620). Conditions: 1 uM.
Description: Inhibition of recombinant human TrkB at 1 uM relative to control

Structures are written as SMILES. Bounds are passed on as bounds.

T1 sequence (Q13153 whole entry): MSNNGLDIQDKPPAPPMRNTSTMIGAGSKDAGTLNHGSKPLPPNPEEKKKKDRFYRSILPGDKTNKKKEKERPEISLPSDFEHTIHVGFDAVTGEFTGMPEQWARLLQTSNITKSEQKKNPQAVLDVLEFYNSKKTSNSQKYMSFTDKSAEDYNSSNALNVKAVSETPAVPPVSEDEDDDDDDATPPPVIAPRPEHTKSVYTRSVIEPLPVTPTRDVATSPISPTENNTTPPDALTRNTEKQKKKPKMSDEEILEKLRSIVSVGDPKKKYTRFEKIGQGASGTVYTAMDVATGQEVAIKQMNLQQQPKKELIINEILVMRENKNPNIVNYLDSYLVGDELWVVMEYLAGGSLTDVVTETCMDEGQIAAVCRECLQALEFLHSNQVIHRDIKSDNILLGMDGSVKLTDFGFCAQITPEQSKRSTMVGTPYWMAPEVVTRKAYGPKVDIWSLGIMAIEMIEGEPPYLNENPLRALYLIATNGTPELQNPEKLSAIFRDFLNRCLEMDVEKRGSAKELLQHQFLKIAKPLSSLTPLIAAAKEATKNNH
Chain of Protein kinase C theta type (Homo sapiens) (Q04759 whole entry, looked up): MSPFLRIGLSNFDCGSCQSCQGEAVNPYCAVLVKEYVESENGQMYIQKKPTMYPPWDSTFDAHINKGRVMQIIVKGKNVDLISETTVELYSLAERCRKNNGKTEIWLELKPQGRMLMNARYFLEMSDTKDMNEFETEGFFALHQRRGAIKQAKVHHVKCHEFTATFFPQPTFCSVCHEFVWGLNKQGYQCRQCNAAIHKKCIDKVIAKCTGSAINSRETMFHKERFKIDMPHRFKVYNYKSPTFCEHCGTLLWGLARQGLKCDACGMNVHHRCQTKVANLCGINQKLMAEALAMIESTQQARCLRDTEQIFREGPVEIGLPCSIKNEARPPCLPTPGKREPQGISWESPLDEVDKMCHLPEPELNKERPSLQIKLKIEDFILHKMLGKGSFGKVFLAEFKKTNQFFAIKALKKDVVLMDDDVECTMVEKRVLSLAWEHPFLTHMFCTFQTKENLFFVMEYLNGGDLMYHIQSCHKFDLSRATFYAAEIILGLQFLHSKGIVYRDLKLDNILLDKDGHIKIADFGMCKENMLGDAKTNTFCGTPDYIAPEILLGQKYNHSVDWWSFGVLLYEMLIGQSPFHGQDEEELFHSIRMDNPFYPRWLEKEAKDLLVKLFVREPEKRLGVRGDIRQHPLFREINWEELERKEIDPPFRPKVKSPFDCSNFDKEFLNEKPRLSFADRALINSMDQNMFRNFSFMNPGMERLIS

As usually defined, the Ki is the dissociation constant of the complex between target and ligand, obtained from inhibition or displacement. Lower therefore signals a stronger hold on the target. What is called logD is the decadic logarithm of the distribution of all forms, ionised or not, between an organic phase and buffer at a given pH. Broadly, the Papp A→B is the apparent permeability from the apical to the basolateral side of a cell layer. The IC50 is the concentration needed to halve the response being measured. In general, clearance refers to a measure of how efficiently the substance is removed, as volume per time. The term AUC denotes the area under the concentration-time curve, a measure of exposure. The bioavailability is the share of a dose that reaches the circulation, judged against a reference dose that is usually intravenous. `CN1CC[C@H](c2cc(Nc3ccnc(N(C)Cc4ccc5[nH]cnc5c4Cl)n3)n[nH]2)C1=O`: the Ki in data set [1] is 18 nM; in data set [2], 950 nM; on Aurora kinase A it was > 5400 nM. Also, in data set [3], the logD was 1.8. For the same compound, in data set [4], the Papp A→B was determined as 5 ×10⁻⁶ cm/s. In addition, in data set [5], the concentration for half-maximal inhibition (IC50) is 7800 nM. This compound came in with a clearance in data set [6] of 7 mL/min/kg. Moreover, the AUC in [7] stood at 5.2 µM·h. Moreover, the bioavailability in data set [8] is < 1%.
For the compound `CN1CC[C@@H](c2cc(Nc3ccnc(N(C)Cc4ccc5[nH]cnc5c4Cl)n3)n[nH]2)C1=O`, the Ki in data set [1] is 552 nM; in [2], > 2900 nM; at Aurora kinase A, > 5400 nM.
On to `CN(Cc1ccc2[nH]cnc2c1Cl)c1nccc(Nc2cc(C3CC3)[nH]n2)n1`, for which the figures for the inhibitory constant (Ki) (in [1]; in data set [2]; on Aurora kinase A) were 5 nM, 272 nM and 3 nM, respectively.
In the case of `Clc1c(CNc2nccc(Nc3cc(C4CCCO4)[nH]n3)n2)ccc2[nH]cnc12` (racemic), the Ki in [1] was 25 nM; in data set [2], 1300 nM; at Aurora kinase A, 25 nM.
For the compound `COCC(C)c1cc(Nc2ccnc(N(C)Cc3ccc4[nH]cnc4c3Cl)n2)n[nH]1` (stereo not drawn), the inhibition constant Ki in [1] was 29 nM; in [2], 617 nM; on Aurora kinase A, 131 nM.
In the case of `CN1CCCC(c2cc(Nc3ccnc(N(C)C[C@H]4CC[C@H](N)CC4)n3)n[nH]2)C1=O` (mixture of isomers), the inhibition constant Ki in [1] was 362 nM; in [2], 2490 nM; at Aurora kinase A, > 5400 nM.
`CN1CC[C@H](c2cc(Nc3ccnc(N(C)C[C@H]4CC[C@H](N)CC4)n3)n[nH]2)C1=O`: the Ki worked out at 37 nM in [1], 344 nM in data set [2] and 3500 nM at Aurora kinase A. In addition, the log distribution coefficient (logD) in [3] was 0.96. Besides, the IC50 in [5] was > 10000 nM. The bioavailability in data set [8] was < 1%.
In general, inhibition refers to the drop in the measured response relative to a control, in per cent. As for `CCN(C[C@H]1CC[C@H](N)CC1)c1nccc(Nc2cc([C@H]3CCN(C)C3=O)[nH]n2)n1`, the results for the Ki (in data set [1]; in data set [2]; on Aurora kinase A) were 49 nM, 621 nM and > 5400 nM, respectively. The inhibition is > 75% in [9] and < 75% in data set [10]. In data set [3], this compound returned a logD of 0.12. Besides, in [5], the IC50 is > 10000 nM. The compound further had a clearance in [6] of 33 mL/min/kg. For the same compound, in the data set on Mus musculus, the AUC result is “BLD”. The bioavailability in data set [8] is < 1%.
With `CN(Cc1ccc2[nH]cnc2c1Cl)c1nccc(Nc2cc(C3CCC(=O)C3)[nH]n2)n1` (racemic), the Ki stood at 16 nM in [1], 629 nM in data set [2] and 17 nM at Aurora kinase A.
On to `CCN1CC[C@H](c2cc(Nc3ccnc(N(C)C[C@H]4CC[C@H](N)CC4)n3)n[nH]2)C1=O`, for which the figures for the Ki (in data set [1]; in data set [2]; at Aurora kinase A) were 18 nM, 817 nM and > 5400 nM, respectively.
For the compound `CC(=O)N(C)Cc1cc(Nc2ccnc(N(C)Cc3ccc4[nH]cnc4c3Cl)n2)n[nH]1`, the Ki in data set [1] is 373 nM; in [2], > 2900 nM; on Aurora kinase A, 893 nM.
As for `C[C@H]1CN(C)C(=O)[C@@H]1c1cc(Nc2ccnc(N(C)C[C@H]3CC[C@H](N)CC3)n2)n[nH]1`, the inhibition constant (Ki) is 46 nM in [1], 1020 nM in [2] and > 5400 nM at Aurora kinase A. Moreover, the inhibition in [9] is > 75%; in data set [10], < 75%; in data set [11] it was < 75%; in [12], < 75%; in [13] it was < 75%; in data set [14], < 75%. The inhibition in data set [15], in data set [16], in data set [17], in data set [18], in data set [19] and in data set [20] was < 75% each time. Also, the inhibition in data set [21] is < 75%; in [22] it was < 75%; in [23] it was < 75%; in data set [24], < 75%; in [25], < 75%; in data set [26] it was > 75%. In addition, the inhibition in data set [27], in data set [28], in [29], in data set [30], in [31] and in [32] was < 75% throughout. Moreover, the inhibition in data set [33] was < 75%.
As to `CN1CC[C@H](c2cc(Nc3ccnc(NC[C@H]4CC[C@H](N)CC4)n3)n[nH]2)C1=O`, the Ki was 111 nM in data set [1], 1270 nM in data set [2] and > 5400 nM on Aurora kinase A.
For `CN1CC(C)(C)C(c2cc(Nc3ccnc(N(C)C[C@H]4CC[C@H](N)CC4)n3)n[nH]2)C1=O` (stereo partly drawn), in that order: > 4500 nM, > 2900 nM and > 5400 nM.
